From patent US8350062B2, “Synthesis and anticancer activity of new actin-targeting small-molecule agents” (priority 2009, dated 2013)

Legend:
[1] = system: A549 tumor xenografts; assay: A549 tumor xenograft growth in nude athymic mice; assay type: in vivo; details: 20 mg/kg i.p. on 3rd, 5th and 7th day
Description: (§1) Initially, we established that 10 had no observed toxicity in mice up to 50 mg/kg a single dose administered i.p. Toxicity was assessed by daily weight measurements and mouse behavior compared to non-injected mice. Next, we established tumor xenografts by injecting A549 cells subcutaneously into two groups of nude athymic mice (6 animals per group). The first group was injected only with DMSO control. The second group of animals received three i.p. doses of analog 10 (20 mg/kg) on the 3rd, 5th and 7th day after the initial tumor challenge. Tumor growth was monitored over a period of five weeks. The tumor grew rapidly in the control mice population and reached an average size of 731 mm^3 at the end of 4 weeks. […] The average tumor size for this population was 308 mm^3 after 4 weeks.
A population of 22 nude athymic mice was injected subcutaneously with A549 cells (10^7 cells in 100 μl PBS each). A subpopulation of 12 mice was injected with analog 10 in 1% DMSO at 20 mg/kg on the 3rd, 5th and 7th day following treatment with A549 cells. A control population of 10 mice was injected with 1% DMSO. Tumor growth was measured over 5 weeks.

[2] = Single dose i.p. toxicity in mice; assay type: in vivo; details: daily weight and behavior
Description: as §1

[3] = system: HL-60(TB); assay: NCI 60 cell line single dose screen; assay type: cell-based, human; details: HL-60(TB) (Leukemia), 10 micromolar, 48 h
[4] = system: PC3 cells; assay: Growth of PC3 cells over 96 h; assay type: cell-based, human; details: same growth conditions
Description: (§2) Cell Viability Assays. All assays were performed using at least three replicate wells for each concentration tested. Original 10-25 mM DMSO stock solution of bistramide A or its analogs was diluted to 100 μM for analogs 4-8, 10 μM for analog 3, 5 μM for analog 2 and 1 μM for bistramide A (1) with F-12K cell culture media supplemented with 10% fetal bovine serum, 100 I.U./ml penicillin, 100 μg/ml streptomycin and 2 mM L-glutamine. Two-fold serial dilutions were performed and used for cell-based assays. A549 cells were grown in 96-well white plates at the density of 1,000 cells per well in 100 μl F-12K cell culture media. Cells were allowed to attach over 24 h and treated with 30 μl of the drug solution and incubated further for 48 h. After incubation, cell viability was determined using luminescence-based commercial kit (CellTiter-Glo, Promega) and luminescence measured using a Wallac Victor 3 plate reader. To measure cell growth inhibition, viability assays were performed twice: at initial time point T0 and after 48 h incubation (T48). Change in the number of viable cells was measured, and GI50 was calculated from sigmoidal plots. For analog 10, growth of A549 and PC3 cells was monitored over 96 h following addition of the drug. 100 μM was the highest concentration tested. At no point did the total DMSO conc. exceed 1%.

[5] = system: F-actin in A549 cells; assay: Fluorescent visualization of F-actin in A549 cells (Alexa Fluor 488 phalloidin); assay type: cell-based, human
Description: The presence of the enone increased the severing efficiency of the analogs three-fold. […] We determined whether it was the depletion of actin filaments by analogs 2-5 which was responsible for the growth inhibition of A549 cells. Each of the compounds was incubated with A549 cells for 2 h at a concentration that exceeded the GI50 value by a factor of 5. The cells were then fixed, permeabilized and filamentous actin was visualized by fluorescence microscopy following Alexa Fluor 488 phalloidin staining. […] They induced depolymerization at 150 nM for bistramide A (1), 500 nM for analog 2 and 2 μM for analog 3. Analogs 4 and 5 induced depolymerization of actin only at concentrations as high as 100 μM. […] This observation was consistent with the enhanced cell-based activity of the compounds containing the C(1)-C(4) enone moiety.
Fluorescent Visualization Of F-Actin In Cells. A549 cells grown on coverslips were incubated with analogs 4-8 (100 μM) analog 3 (2 μM) or analog 2 (500 nM) or bistramide A (150 nM) in F-12K cell culture medium for 2 h, fixed with 3% formaldehyde in PBS at 25° C. for 5 min and permeabilized with 0.1% Triton X-100 at 25° C. for 10 min. After washing with PBS, coverslips were stained with Alexa Fluor 488 Phalloidin and visualized by fluorescence microscopy.

[6] = target: filamentous actin (Oryctolagus cuniculus, UniProt P68135); assay: TIRF microscopy of Oregon green-labeled actin filaments with analog 10; assay type: biochemical; details: 1.5 μM solution
Description: Encouraged by the initially observed potent G-actin binding affinity of 10, we next employed time-lapse total internal reflection fluorescence (TIRF) microscopy to examine the effects of this compound on depolymerization of filamentous actin in vitro. We initially assembled individual actin filaments by elongating them from a pool of 1.0 μM Mg-ATP-actin monomers supplemented with a trace of […] Mg-ATP-actin monomers labeled with Oregon green for visualization. The resulting filaments were incubated with either a solution of buffer or a 1.5 μM solution of 10 and imaged with TIRF microscopy. […] Similar to our previous observations, the mechanism of actin depolymerization by 10 entailed formation of multiple filaments breaks, which in turn created subsequent points for actin disassembly.

[7] = system: A549 cells; assay: Cell viability assay (CellTiter-Glo), growth inhibition of A549 cells; assay type: cell-based, human; details: 24-96 h
Description: as §2

## COCCC(=O)NC[C@H](O)[C@H](C)C(=O)NCCC[C@H]1O[C@@]2(CCC[C@@H](CC[C@H](C)/C=C(\C)[C@H](C)O)O2)CCC1C (stereo partly shown) [Analog 10]
[1]
  drug-based cytotoxicity: no significant drug-based cytotoxicity was observed
  tumor growth: substantially inhibited
[1]; after 4 weeks
  average tumor size: 308 mm^3
[2]
  dose with no observed toxicity: up to 50 mg/kg
[3]
  Growth Percent: 51.51%
[4]
  sensitivity of PC3 cells compared with A549 cells: substantially less sensitive
[5]
  F-actin depolymerization in A549 cells: depolymerized F-actin in A549 cells in a dose-dependent manner
[5]; A549 cells
  concentration at which noticeable actin disassembly was detected: 250 nM
[6]
  effect on F-actin filaments: rapid filament disassembly
[7]
  concentration giving complete growth inhibition: 5 µM
